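Values below derive from 48-hour exposures of cells grown in 96-well plates, with endpoints linearly interpolated between the two concentrations bracketing the appropriate inhibition level. TGI: total growth inhibition.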
How the values were obtained:
Experiment in all cases: inhibition of tumour cell growth, NCI panel, 48 h
[1] = test system: 786-0 renal
[2] = test system: A498 renal
[3] = test system: A549 NSCLC
[4] = test system: ACHN renal
[5] = test system: BT-549 breast
[6] = test system: CAKI-1 renal
[7] = test system: CCRF-CEM leukemia
[8] = test system: COLO 205 colon
[9] = test system: DU-145 prostate
[10] = test system: EKVX NSCLC
[11] = test system: HCC-2998 colon
[12] = test system: HCT-116 colon
[13] = test system: HCT-15 colon
[14] = test system: HL-60(TB) leukemia
[15] = test system: HOP-62 NSCLC
[16] = test system: HOP-92 NSCLC
[17] = test system: HS 578T breast
[18] = test system: HT29 colon
[19] = test system: IGROV1 ovarian
[20] = test system: K-562 leukemia
[21] = test system: KM12 colon
[22] = test system: LOX IMVI melanoma
[23] = test system: M14 melanoma
[24] = test system: MALME-3M melanoma
[25] = test system: MCF7 breast
[26] = test system: MDA-MB-231 breast
[27] = test system: MDA-MB-435
[28] = test system: MDA-N
[29] = test system: MOLT-4 leukemia
[30] = test system: NCI-H226 lung
[31] = test system: NCI-H23 lung
[32] = test system: NCI-H460 lung
[33] = test system: NCI-H522 lung
[34] = test system: NCI/ADR-RES ovarian
[35] = test system: OVCAR-3 ovarian
[36] = test system: OVCAR-4 ovarian
[37] = test system: OVCAR-5 ovarian
[38] = test system: OVCAR-8 ovarian
[39] = test system: PC-3 prostate
[40] = test system: RPMI-8226 leukemia
[41] = test system: RXF 393 renal
[42] = test system: SF-268 CNS
[43] = test system: SF-295 CNS
[44] = test system: SF-539 CNS
[45] = test system: SK-MEL-2 melanoma
[46] = test system: SK-MEL-28 melanoma
[47] = test system: SK-MEL-5 melanoma
[48] = test system: SK-OV-3 ovarian
[49] = test system: SN12C renal
[50] = test system: SNB-19 CNS
[51] = test system: SNB-75 CNS
[52] = test system: SR leukemia
[53] = test system: SW-620 colon
[54] = test system: T-47D breast
[55] = test system: TK-10 renal
[56] = test system: U251 CNS
[57] = test system: UACC-257 melanoma
[58] = test system: UACC-62 melanoma
[59] = test system: UO-31 renal

For `Cc1cccc2c1CC(C1OC(=O)c3ccccc31)C2=O` (stereo not drawn), the TGI [1] was > 100 µM, the TGI [2] was > 100 µM and the TGI [3] was > 100 µM. For the same compound, the TGI [4] was > 100 µM, the TGI [5] was > 100 µM and the TGI [6] was > 100 µM. The TGI [7] was > 100 µM, the TGI [8] was > 100 µM and the TGI [9] was > 100 µM. The TGI [10] was > 100 µM, the TGI [11] was > 100 µM and the TGI [12] was > 100 µM. The TGI [13] was > 100 µM, the TGI [14] was > 100 µM and the TGI [15] was > 100 µM. The TGI [16] was > 100 µM, the TGI [17] was > 100 µM and the TGI [18] was > 100 µM. For the same compound, the TGI [19] was > 100 µM, the TGI [20] was > 100 µM and the TGI [21] was > 100 µM. The TGI [22] was > 100 µM, the TGI [23] was > 100 µM and the TGI [24] was > 100 µM. For the same compound, the TGI [25] was > 100 µM, the TGI [26] was > 100 µM and the TGI [27] was > 100 µM. The TGI [28] was > 100 µM, the TGI [29] was > 100 µM and the TGI [30] was > 100 µM. The TGI [31] was > 100 µM, the TGI [32] was > 100 µM and the TGI [33] was > 100 µM. For the same compound, the TGI [34] was > 100 µM, the TGI [35] was > 100 µM and the TGI [36] was > 100 µM. The TGI [37] was > 100 µM, the TGI [38] was > 100 µM and the TGI [39] was > 100 µM. For the same compound, the TGI [40] was > 100 µM, the TGI [41] was > 100 µM and the TGI [42] was > 100 µM. The TGI [43] was > 100 µM, the TGI [44] was > 100 µM and the TGI [45] was > 100 µM. The TGI [46] was > 100 µM, the TGI [47] was > 100 µM and the TGI [48] was > 100 µM. For the same compound, the TGI [49] was > 100 µM, the TGI [50] was > 100 µM and the TGI [51] was > 100 µM. For the same compound, the TGI [52] was > 100 µM, the TGI [53] was > 100 µM and the TGI [54] was > 100 µM. For the same compound, the TGI [55] was > 100 µM, the TGI [56] was > 100 µM and the TGI [57] was > 100 µM. The TGI [58] was > 100 µM and the TGI [59] was > 100 µM.

In the case of `COc1ccc(N2C(=O)C3c4[nH]c5ccccc5c4C4CCC(c5ccccc5)CC4C3C2=O)cc1` (stereo not drawn), the TGI [1] is reported as > 34.9 µM, the TGI [2] is reported as 50.6 µM and the TGI [3] is reported as > 78.1 µM. For the same compound, the TGI [4] was 47.9 µM, the TGI [5] was > 58.3 µM and the TGI [6] was 36.1 µM. The TGI [7] was 53 µM, the TGI [8] was > 78.2 µM and the TGI [9] was > 100 µM. The TGI [10] was 55.6 µM, the TGI [11] was > 44.9 µM and the TGI [12] was > 100 µM. For the same compound, the TGI [13] was > 100 µM, the TGI [14] was > 34.8 µM and the TGI [15] was 27.7 µM. For the same compound, the TGI [16] was 61.8 µM, the TGI [17] was 21.5 µM and the TGI [18] was > 100 µM. For the same compound, the TGI [19] was 68.8 µM, the TGI [20] was > 41.3 µM and the TGI [21] was > 100 µM. For the same compound, the TGI [22] was > 54.1 µM, the TGI [23] was > 94.4 µM and the TGI [24] was 18.3 µM. For the same compound, the TGI [25] was > 100 µM, the TGI [26] was 41.5 µM and the TGI [27] was > 100 µM. The TGI [28] was > 81.5 µM, the TGI [29] was > 100 µM and the TGI [30] was > 96.7 µM. The TGI [31] was > 51.7 µM, the TGI [32] was > 43.1 µM and the TGI [33] was > 44 µM. For the same compound, the TGI [34] was > 59.3 µM, the TGI [35] was > 100 µM and the TGI [36] was > 49.5 µM. The TGI [37] was > 100 µM, the TGI [38] was 37.2 µM and the TGI [39] was > 78.5 µM. It also gave a TGI [40] of 78.6 µM, a TGI [41] of 25.6 µM and a TGI [42] of 43.8 µM. The TGI [43] was > 51.1 µM, the TGI [44] was 7.4 µM and the TGI [45] was 53.2 µM. For the same compound, the TGI [46] was > 96.2 µM, the TGI [47] was > 87.8 µM and the TGI [48] was 54.8 µM. The TGI [49] was > 68.4 µM, the TGI [50] was 43.2 µM and the TGI [51] was 19.1 µM. The TGI [52] was 7.15 µM, the TGI [53] was > 100 µM and the TGI [54] was > 100 µM. It also gave a TGI [55] of 35.5 µM, a TGI [56] of 21.1 µM and a TGI [57] of 97.5 µM. The TGI [58] was 50.3 µM and the TGI [59] was > 88.2 µM.

— PubChem BioAssay (NCI)
